US9675662B2, “Compositions for inhibition of RNA polymerase I and methods of production and use thereof” (The Board of Regents of the University of Oklahoma, priority 2011, dated 2017)
“Also recorded” adds a separate entry of the source. Read-outs that look alike come from different tables or passages of the source. Where no end group is shown, it is not given here. The star is where a group is joined. Biotin = O=C1N[C@H]2[C@H](CS[C@H]2CCCCC(=O)*)N1

What was measured:
Rrn3 = target: T1, Rrn3 (Homo sapiens, UniProt Q9NYV6); assay: Binding of purified recombinant Rrn3 to streptavidin beads carrying biotinylated 22mer (pull-down, western blot); conditions: western blotting for Rrn3 (anti-FLAG)
T1 construct: made in house
Description: Immunoaffinity purified Rrn3 was incubated with streptavidin beads that had been preincubated with biotin-tagged 22mer or control extracts. After the beads were washed the proteins bound to the beads were analyzed by SDS-PAFE and western blotting for Rrn3 (anti-FLAG antibody).
In order to address that question, a biotinylated peptide made up of those 22 amino acids (biotin-[…] (SEQ ID NO:1)) was attached to streptavidin beads, and the ability to bind purified, recombinant Rrn3 was determined.

NIH 3T3 cells = assay: Growth of NIH 3T3 cells after 48 hours; assay type: cell-based; conditions: three plating densities, 40 and 60 μM
Description: FIG. 10 illustrates the effects of a TAT-tagged 22mer (TAT-22mer) composition of the presently disclosed inventive concept(s) on NIH 3T3 cells plated at three different densities after 48 hours.
However, it was possible that the same peptide would inhibit the growth of “normal” cells as well. To examine this possibility, TAT-tagged 22mer was added to the media of NIH 3T3 cells, and growth was measured after 48 hours.
(§1) In these experiments, and in others described below, cell numbers were determined using the […], and the absorbance at 570 nm is presented instead of cell numbers.

A431 cells = assay: Growth of A431 cells plated at low density; assay type: cell-based; conditions: 72 hr
Description: FIG. 12 illustrates the effects of TAT-22mer on the growth of A431 cells plated at low density after 72 hr.
as §1

N1S1 rat hepatoma cells = assay: Growth of N1S1 hepatoma cells after peptide transduction; assay type: cell-based
Description: FIG. 14 illustrates the effects of TAT-22mer (labeled “STBY”) on the growth of N1S1 rat hepatoma cells.
FIG. 15 illustrates the effects of TAT-22mer (labeled “STBY”) on the growth of N1S1 rat hepatoma cells (fresh peptide added after 24 hours).
This effect was then tested […], i.e. with immortalized cells in tissue culture. There are several possible ways of introducing the desired peptide into cells. In a first experiment, ten amino acids, YGRKKEEQRR (SEQ ID NO:176), were added to the N-terminus of the 22mer peptide, […] (resulting in a sequence of […] (SEQ ID NO:175)); the ten amino acids were added to assist in transduction of the peptide into the cells. The TAT peptide is an NH2-terminal 11-amino acid protein transduction domain (PTD) from the human immunodeficiency virus (HIV) TAT protein that was first identified in 1988 by Green et al. This peptide and peptides like it are capable of transducing proteins across the cell membrane.
The effects of transducing the 22mer coupled to TAT peptide were then compared to TAT peptide alone. An aggressive chemically-induced hepatoma cell line (N1S1 cells) was used for these experiments.
(§2) When the sequence of the 22mer was examined, it was noted that it contains two cysteine residues that might form a disulfide bond and inhibit the activity of the peptide. To examine this question, the experiment previously carried out on the N1S1 cells was repeated using peptide that was dissolved in 0.1 mM […].

[1] = test system: rDNA transcription (RNA polymerase I); assay: Cell-free rDNA transcription reaction (N1S1 nuclear extracts, rat rDNA promoter); assay type: biochemical; conditions: added in excess to transcription reaction
Excerpt: FIG. 6 illustrates squelching by excess Rpa43 or the peptide (22mer) that mediates the interaction between Rpa43 and Rrn3.
To test this model, recombinant Rpa43 was purified and added to cell free transcription reactions to determine if excess Rpa43 could inhibit transcription. The components added to this reaction included nuclear extracts of N1S1 cells (a rat tumor cell line), and recombinant DNA of the rat rDNA promoter and the purified, recombinant Rpa43 or purified synthetic peptides (FIG. 6). […] A similar series of experiments was then undertaken with synthetic peptides. The two peptides were based on the sequence of the region shown to be required for the interaction between Rrn3 and Rpa43 (FIG. 6, Panel B).

293T cells = assay: Growth of 293T-based cell lines expressing doxycycline-inducible peptide; conditions: peptide expressed in cells grown in doxycycline; versus Ψ peptide
Excerpt: To confirm and extend these studies, cell lines were constructed that were based on 293T cells (Invitrogen, Carlsbad, Calif.), that expressed doxycycline-inducible 22mer or the random peptide (Ψ). […] N.B., there was an inhibition of growth.

WI38 cells = assay: Growth of WI38 cells (MTT assay) and peptide uptake; assay type: cell-based; conditions: 48 hours
Description: FIG. 11 illustrates the effects of TAT-22mer on WI38 cells after 48 hours using the MTT assay.
as §1

[2] = test system: U937 human lymphoma cells; assay: Growth of U937 cells; assay type: cell-based
Description: FIG. 13 illustrates the effects of TAT-22mer on the growth of U937 cells after 24 hours.
as §1

[3] = test system: rDNA transcription in N1S1 cells; assay: [3H]-uridine incorporation into newly synthesized RNA in transduced N1S1 cells; assay type: cell-based, rat; conditions: 40 μM, eight hours after transduction
Description: FIG. 7 illustrates that transduction of the 22mer inhibits rDNA transcription in tissue culture cells. Low density cultures of N1S1 cells were transduced with the TAT-22mer (40 μM). Eight hours after transduction, the cells were incubated with tritiated uridine to label newly synthesized RNA. Total RNA was precipitated with TCA and collected on glass fiber filters, and the radioactivity incorporated was measured by liquid scintillation counting.

[4] = test system: P1798 mouse lymphosarcoma cells; assay: Growth and viability (Trypan blue exclusion) of P1798 lymphosarcoma cells; assay type: cell-based
Excerpt: FIG. 16 illustrates the effect of TAT-22mer on P1798 mouse lymphosarcoma cells.
FIG. 17 contains micrographs of P1798 mouse lymphosarcoma cells treated with TAT-22mer (“STBY peptide”) at indicated doses. The cells were stained with trypan blue to determine viability.
FIG. 18 illustrates the effects of TAT-22mer (TAT-STBY) and TAT-STBY C-Mu on P1798 mouse lymphosarcoma cells.
FIG. 19 illustrates the effects of TAT-22mer (TAT-STBY) and TAT-STBY C-Mu on the viability of P1798 mouse lymphosarcoma cells. The same cells studied in the experiment presented in FIG. 18, were also stained with Trypan blue to determine viability. The viable cell counts at 10 and 24 hrs of treatment were too low to be considered reliable (*).
FIG. 20 illustrates the effects of TAT-22mer (TAT-STBY) and TAT-STBY C-Mu on the viability of P1798 mouse lymphosarcoma cells as analyzed in FIGS. 18 and 19.
FIG. 21 illustrates the effects of TAT-22mer (TAT-STBY) and TAT-STBY C-Mu on P1798 mouse lymphosarcoma cells. P1798 Cells were treated with TAT-STBY C-Mu for 26 hours and then stained with Trypan blue. […] The treated cells were concentrated 20× for photography.
FIG. 22 illustrates the kinetics of cell death following treatment with C-Mu peptide. […] Cells were harvested by centrifugation every two hours, and the numbers of viable cells were determined using the Trypan blue exclusion assay.
as §2
In fact, automated cell-cell counting was inaccurate due to the increased amount of dead cells and debris (FIGS. 19-20).

T1 sequence (Q9NYV6 whole entry, species assumed): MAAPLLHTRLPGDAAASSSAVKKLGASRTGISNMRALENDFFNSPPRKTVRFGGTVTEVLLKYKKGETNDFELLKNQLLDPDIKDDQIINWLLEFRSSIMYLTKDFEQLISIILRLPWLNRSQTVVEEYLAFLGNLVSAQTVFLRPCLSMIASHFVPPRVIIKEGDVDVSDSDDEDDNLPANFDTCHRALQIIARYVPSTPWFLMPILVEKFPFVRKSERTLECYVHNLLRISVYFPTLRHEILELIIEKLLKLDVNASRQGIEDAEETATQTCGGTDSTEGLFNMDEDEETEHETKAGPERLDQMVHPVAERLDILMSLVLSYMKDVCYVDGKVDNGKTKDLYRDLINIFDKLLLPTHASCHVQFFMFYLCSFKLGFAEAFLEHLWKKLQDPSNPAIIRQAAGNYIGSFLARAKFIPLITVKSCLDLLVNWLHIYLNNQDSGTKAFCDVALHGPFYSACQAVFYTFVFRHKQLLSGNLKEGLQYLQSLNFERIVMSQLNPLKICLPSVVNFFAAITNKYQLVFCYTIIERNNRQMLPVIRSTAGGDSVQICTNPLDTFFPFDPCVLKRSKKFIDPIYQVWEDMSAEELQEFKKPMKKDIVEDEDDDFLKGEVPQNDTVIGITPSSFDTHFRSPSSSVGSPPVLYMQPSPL

Substance	binding of Rrn3 to bead-bound peptide (Rrn3)	binding of Rrn3 to bead-bound peptide (Rrn3; listed as biotin-tagged 22mer)	growth of 3T3 cells (NIH 3T3 cells)	growth of A431 cells (A431 cells)	N1S1 cell growth / cell division (N1S1 rat hepatoma cells)	appearance of N1S1 cells (N1S1 rat hepatoma cells; 40 μM, after 48 hr)	rate of N1S1 cell accumulation (N1S1 rat hepatoma cells; 20 and 40 μM)	inhibition of cell-free rDNA transcription [1]	cell growth / rate of cell division (293T cells)	growth of WI38 cells (WI38 cells)	growth of U937 cells [2]	growth of U937 cells at 80 μM ([2]; 80 μM, 24 hours)	N1S1 cell growth / cell division (N1S1 rat hepatoma cells; listed as STBY)	decrease in number of treated N1S1 cells (N1S1 rat hepatoma cells; peptide dissolved in 0.1 mM reducing agent (dithiothreitol), fresh peptide added after 24 hours)	inhibition of rDNA transcription ([3]; inferred from uridine incorporation)	inhibition of [3H]-uridine incorporation ([3]; low density N1S1 cultures)	growth of P1798 cells [4]	Trypan blue dye exclusion by P1798 cells ([4]; 40 μM)	response of P1798 cells at 40 micromolar ([4]; 40 micromolar, cells grown in a reducing medium)	number of viable P1798 cells ([4]; photomicrographs, Trypan blue)
Biotin-NKVSSSHIGCLVHGCFNASIPK (cysteine pairing not given here) [biotinylated 22mer]	Rrn3 bound to beads	sufficient to mediate interaction between Rpa43 and Rrn3																		
NKVSSSHIGCLVHGCFNASIPK (listed as Homo sapiens) [22mer, amino acids 137 to 158 of mouse Rpa43]			no effects on the growth	inhibited the growth	inhibits cell division; also recorded: significantly inhibited cell growth in a dose-dependent manner	appeared to be apoptotic	decreased rate of cell accumulation	inhibits transcription; also recorded: transcription was inhibited	inhibits cell growth; also recorded: significant decrease in the rate of cell division	minimal effect on the growth										
YGRKKEEQRRNKVSSSHIGCLVHGCFNASIPK (1st ten amino acids are TAT peptide from HIV; last 22 amino acids are from Homo sapiens) [TAT-22mer, 22mer with ten TAT amino acids added to the N-terminus]					cell growth was inhibited					minimal effect on cell accumulation	very significant effects on the growth	significant inhibition of cell growth	very significant effects on the growth	90%	~100%	70%	very significant effects on the growth	did not exclude the dye	significant response	significantly reduced the number of viable cells
